The text below walks through data of patent US7109193B2, “Tricyclic diazepines tocolytic oxytocin receptor antagonists” (Wyeth, priority 2001, dated 2006).

SMILES strings stand for the structures.

T1 sequence (P37288 whole entry): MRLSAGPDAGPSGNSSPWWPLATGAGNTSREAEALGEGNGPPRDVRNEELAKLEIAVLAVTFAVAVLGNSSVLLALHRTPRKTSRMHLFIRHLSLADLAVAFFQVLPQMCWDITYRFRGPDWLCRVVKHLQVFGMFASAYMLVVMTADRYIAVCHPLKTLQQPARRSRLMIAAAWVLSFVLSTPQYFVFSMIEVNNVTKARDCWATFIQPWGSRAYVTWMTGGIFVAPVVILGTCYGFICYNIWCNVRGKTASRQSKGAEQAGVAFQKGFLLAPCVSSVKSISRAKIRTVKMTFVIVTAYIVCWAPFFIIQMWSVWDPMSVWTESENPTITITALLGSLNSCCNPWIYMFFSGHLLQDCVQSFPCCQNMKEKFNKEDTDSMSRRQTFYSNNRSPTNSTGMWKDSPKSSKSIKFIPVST

The assay concerns the target T1, human vasopressin V1a receptor subtype (Homo sapiens, UniProt P37288).
T1 construct: host or cells: CHO cells (pZeoSV vector for the Thibonnier line)
The experiment in a line: Vasopressin binding in Chinese Hamster Ovary cell membranes expressing human vasopressin V1a subtype receptors. Conditions: 100 nM, CHO cell membranes, [3H]Manning ligand, values without parentheses. The method in brief: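 Membranes from CHO cells expressing human V1a receptor were incubated with [3H]Manning ligand (added as 20 μL of 8 nM) in pH 7.4 Tris buffer with MgCl2, BSA and protease inhibitors, 60 min at room temperature. Bound radioactivity was counted after filtration; values are percent inhibition at a stated concentration or IC50.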
For orientation: inhibition means the drop in the measured response relative to a control, in per cent. For the molecule `COc1cc(C(=O)N2Cc3ccc(C(=O)N(C)C4CCN(C)CC4)n3Cc3ccccc32)ccc1-c1cccc2ccccc12` [Example 182, 10-[3-Methoxy-4-(1-naphthyl)benzoyl]-N-methyl-N-(1-methyl-4-piperidinyl)-10,11-dihydro-5H-pyrrolo[2,1-c][1,4]benzodiazepine-3-carboxamide], the inhibition at 0.1 µM was 14%.

Turning to `Cc1cc(C(=O)N2Cc3ccc(C(=O)N(C)C4CCN(C)CC4)n3Cc3ccccc32)ccc1-c1ccccc1C(F)(F)F` [Example 184, N-Methyl-N-(1-methyl-4-piperidinyl)-10-{[2-methyl-2′-(trifluoromethyl)[1,1′-biphenyl]-4-yl]carbonyl}-10,11-dihydro-5H-pyrrolo[2,1-c][1,4]benzodiazepine-3-carboxamide], the inhibition at 0.1 µM came to 0%.

Regarding `COc1cc(C(=O)N2Cc3ccc(C(=O)N(C)C4CCN(C)C4)n3Cc3ccccc32)ccc1-c1cccc2ccccc12` (stereo not shown) [Example 192, 10-[3-Methoxy-4-(1-naphthyl)benzoyl]-N-methyl-N-(1-methyl-3-pyrrolidinyl)-10,11-dihydro-5H-pyrrolo[2,1-c][1,4]benzodiazepine-3-carboxamide], the inhibition at 0.1 µM is 31%.

Regarding `C=CCN1CCN(C(=O)c2ccc3n2Cc2ccccc2N(C(=O)c2ccc(-c4ccccc4C)c(OC)c2)C3)CC1` [Example 225, (4-Allyl-1-piperazinyl){10-[(2-methoxy-2′-methyl[1,1′-biphenyl]-4-yl)carbonyl]-10,11-dihydro-5H-pyrrolo[2,1-c][1,4]benzodiazepin-3-yl}methanone], the inhibition at 0.1 µM is 35%.

Take `COc1cccc(-c2ccc(C(=O)N3Cc4ccc(C(=O)NCCN5CCCCC5)n4Cc4ccccc43)cc2OC)c1` [Example 159, 10-[(2,3′-Dimethoxy[1,1′-biphenyl]-4-yl)carbonyl]-N-[2-(1-piperidinyl)ethyl]-10,11-dihydro-5H-pyrrolo[2,1-c][1,4]benzodiazepine-3-carboxamide]: the inhibition at 0.1 µM was 44%.

Regarding `Cc1ccccc1-c1ccc(C(=O)N2Cc3ccc(C(=O)NCCC4CCCN4C)n3Cc3ccccc32)cc1` (stereo not shown) [Example 166, 10-[(2′-Methyl[1,1′-biphenyl]-4-yl)carbonyl]-N-[2-(1-methyl-2-pyrrolidinyl)ethyl]-10,11-dihydro-5H-pyrrolo[2,1-c][1,4]benzodiazepine-3-carboxamide], the inhibition at 0.1 µM amounted to 29%.

Regarding `COc1cc(-c2ccccc2C)c(Cl)cc1C(=O)N1Cc2ccc(C(=O)NCCC3CCCN3C)n2Cc2ccccc21` (stereo not shown) [Example 168, 10-[(6-Chloro-3-methoxy-2′-methyl[1,1′-biphenyl]-4-yl)carbonyl]-N-[2-(1-methyl-2-pyrrolidinyl)ethyl]-10,11-dihydro-5H-pyrrolo[2,1-c][1,4]benzodiazepine-3-carboxamide], the inhibition at 0.1 µM turned out to be 8%.

For the molecule `O=C(NCCN1CCCCC1)c1ccc2n1Cc1ccccc1N(C(=O)c1ccc(-c3cccc4ccccc34)cc1Cl)C2` [Example 160, 10-[2-Chloro-4-(1-naphthyl)benzoyl]-N-[2-(1-piperidinyl)ethyl]-10,11-dihydro-5H-pyrrolo[2,1-c][1,4]benzodiazepine-3-carboxamide], the inhibition at 0.1 µM turned out to be 6%.

In the case of `C=CCN1CCN(C(=O)c2ccc3n2Cc2ccccc2N(C(=O)c2ccc(-c4cccc(OC)c4)c(OC)c2)C3)CC1` [Example 228, (4-Allyl-1-piperazinyl){10-[(2,3′-dimethoxy[1,1′-biphenyl]-4-yl)carbonyl]-10,11-dihydro-5H -pyrrolo[2,1-c][1,4]benzodiazepin-3-yl}methanone], the inhibition at 0.1 µM stood at 22%.

`COc1ccccc1-c1ccc(C(=O)N2Cc3ccc(C(=O)NCCC4CCCN4C)n3Cc3ccccc32)cc1` (stereo not shown) [Example 165, 10-[(2′-Methoxy[1,1′-biphenyl]-4-yl)carbonyl]-N-[2-(1-methyl-2-pyrrolidinyl)ethyl]-10,11-dihydro-5H-pyrrolo[2,1-c][1,4]benzodiazepine-3-carboxamide]: the inhibition at 0.1 µM came to 24%.

For `COc1ccccc1-c1ccc(C(=O)N2Cc3ccc(C(=O)N4CCN(C(C)C)CC4)n3Cc3ccccc32)cc1C` [Example 232, (4-Isopropyl-1-piperazinyl){10-[(2′-methoxy-2-methyl[1,1′-biphenyl]-4-yl)carbonyl]-10,11-dihydro-5H-pyrrolo[2,1-c][1,4]benzodiazepin-3-yl}methanone], the inhibition at 0.1 µM worked out at 13%.

`Cc1ccccc1-c1ccc(C(=O)N2Cc3ccc(C(=O)N4CCN(CCN5CCOCC5)CC4)n3Cc3ccccc32)cc1` [Example 209, {10-[(2′-Methyl[1,1′-biphenyl]-4-yl)carbonyl]-10,11-dihydro-5H-pyrrolo[2,1-c][1,4]benzodiazepin-3-yl}{4-[2-(4-morpholinyl)ethyl]-1-piperazinyl}methanone]: the inhibition at 0.1 µM came out at 64%.

Take `COc1cc(C(=O)N2Cc3ccc(C(=O)NCCN4CCCCC4)n3Cc3ccccc32)ccc1-c1cccc2ccccc12` [Example 157, 10-[3-Methoxy-4-(1-naphthyl)benzoyl]-N-[2-(1-piperidinyl)ethyl]-10,11-dihydro-5H-pyrrolo[2,1-c][1,4]benzodiazepine-3-carboxamide]: the inhibition at 0.1 µM came out at 5%.

`COc1ccccc1-c1ccc(C(=O)N2Cc3ccc(C(=O)N4CCN(CCN(C)C)CC4)n3Cc3ccccc32)cc1OC` [Example 204, {10-[(2,2′-Dimethoxy[1,1′-biphenyl]-4-yl)carbonyl]-10,11-dihydro-5H-pyrrolo[2,1-c][1,4]benzodiazepin-3-yl}{4-[2-(dimethylamino)ethyl]-1-piperazinyl}methanone]: the inhibition at 0.1 µM came to 16%.

`C=CCN1CCN(C(=O)c2ccc3n2Cc2ccccc2N(C(=O)c2ccc(-c4cccc5ccccc45)cc2Cl)C3)CC1` [Example 229, (4-Allyl-1-piperazinyl){10-[2-chloro-4-(1-naphthyl)benzoyl]-10,11-dihydro-5H-pyrrolo[2,1-c][1,4]benzodiazepin-3-yl}methanone]: the inhibition at 0.1 µM was determined as 8%.

For `COc1ccccc1-c1ccc(C(=O)N2Cc3ccc(C(=O)NCCC4CCCN4C)n3Cc3ccccc32)cc1OC` (stereo not shown) [Example 171, 10-[(2,2′-Dimethoxy[1,1′-biphenyl]-4-yl)carbonyl]-N-[2-(1-methyl-2-pyrrolidinyl)ethyl]-10,11-dihydro-5H-pyrrolo[2,1-c][1,4]benzodiazepine-3-carboxamide], the inhibition at 0.1 µM came to 14%.

`COc1cccc(-c2ccc(C(=O)N3Cc4ccc(C(=O)N5CCN(CCN6CCOCC6)CC5)n4Cc4ccccc43)cc2OC)c1` [Example 211, {10-[(2,3′-Dimethoxy[1,1′-biphenyl]-4-yl)carbonyl]-10,11-dihydro-5H-pyrrolo[2,1-c][1,4]benzodiazepin-3-yl}{4-[2-(4-morpholinyl)ethyl]-1-piperazinyl}methanone]: the inhibition at 0.1 µM was determined as 45%.

Take `Cc1ccccc1-c1ccc(C(=O)N2Cc3ccc(C(=O)N4CCN(CCN(C)C)CC4)n3Cc3ccccc32)cc1` [Example 200, {4-[2-(Dimethylamino)ethyl]-1-piperazinyl}{10-[(2′-methyl[1,1′-biphenyl]-4-yl)carbonyl]-10,11-dihydro-5H-pyrrolo[2,1-c][1,4]benzodiazepin-3-yl}methanone]: the inhibition at 0.1 µM amounted to 64%.

On to `COc1cc(C(=O)N2Cc3ccc(C(=O)N(C)C4CCN(C)C4)n3Cc3ccccc32)ccc1-c1ccccc1C` (stereo not shown) [Example 189, 10-[(2-Methoxy-2′-methyl[1,1′-biphenyl]-4-yl)carbonyl]-N-methyl-N-(1-methyl-3-pyrrolidinyl)-10,11-dihydro-5H-pyrrolo[2,1-c][1,4]benzodiazepine-3-carboxamide], for which the inhibition at 0.1 µM stood at 83%.

As to `COc1cccc(-c2ccc(C(=O)N3Cc4ccc(C(=O)N(C)C5CCN(C)C5)n4Cc4ccccc43)cc2C)c1` (stereo not shown) [Example 186, 10-[(3′-Methoxy-2-methyl[1,1′-biphenyl]-4-yl)carbonyl]-N-methyl-N-(1-methyl-3-pyrrolidinyl)-10,11-dihydro-5H-pyrrolo[2,1-c][1,4]benzodiazepine-3-carboxamide], the inhibition at 0.1 µM is 53%.

As to `COc1ccccc1-c1ccc(C(=O)N2Cc3ccc(C(=O)N(C)C4CCN(C)C4)n3Cc3ccccc32)cc1C` (stereo not shown) [Example 185, 10-[(2′-Methoxy-2-methyl[1,1′-biphenyl]-4-yl)carbonyl]-N-methyl-N-(1-methyl-3-pyrrolidinyl)-10,11-dihydro-5H-pyrrolo[2,1-c][1,4]benzodiazepine-3-carboxamide], the inhibition at 0.1 µM turned out to be 37%.

For `Cc1cc(C(=O)N2Cc3ccc(C(=O)N4CCN(C(C)C)CC4)n3Cc3ccccc32)ccc1-c1ccccc1C(F)(F)F` [Example 240, (4-Isopropyl-1-piperazinyl)(10-{[2-methyl-2′-(trifluoromethyl)[1,1′-biphenyl]-4-yl]carbonyl}-10,11-dihydro-5H-pyrrolo[2,1-c][1,4]benzodiazepin-3-yl)methanone], the inhibition at 0.1 µM turned out to be 1%.

For `COc1ccccc1-c1ccc(C(=O)N2Cc3ccc(C(=O)N(C)C4CCN(C)CC4)n3Cc3ccccc32)cc1` [Example 177, 10-[(2′-Methoxy[1,1′-biphenyl]-4-yl)carbonyl]-N-methyl-N-(1-methyl-4-piperidinyl)-10,11-dihydro-5H-pyrrolo[2,1-c][1,4]benzodiazepine-3-carboxamide], the inhibition at 0.1 µM turned out to be 42%.

Take `C=CCN1CCN(C(=O)c2ccc3n2Cc2ccccc2N(C(=O)c2ccc(-c4cccc5ccccc45)c(OC)c2)C3)CC1` [Example 231, (4-Allyl-1-piperazinyl){10-[3-methoxy-4-(1-naphthyl)benzoyl]-10,11-dihydro-5H -pyrrolo[2,1-c][1,4]benzodiazepin-3-yl}methanone]: the inhibition at 0.1 µM was found to be 7%.

`Cc1ccccc1-c1ccc(C(=O)N2Cc3ccc(C(=O)N4CCN(C(C)C)CC4)n3Cc3ccccc32)cc1C` [Example 233, {10-[(2,2′-Dimethyl[1,1′-biphenyl]-4-yl)carbonyl]-10,11-dihydro-5H-pyrrolo[2,1-c][1,4]benzodiazepin-3-yl}(4-isopropyl-1-piperazinyl)methanone]: the inhibition at 0.1 µM stood at 31%.
